Data as given in patent US20260265538A1, “Aqueous Industrial Product Stabilized Against Microbial Contamination” (Thor GmbH, priority 2023, published 2026).
Structures can show the parent of a compound that is named as a salt.

Tested on: Bacteria mixture 1 (Pseudomonas genus)
Experiment: Repetitive stress test of paints with bacteria mixture 1, semiquantitative evaluation (examples 2 and 3)
Assay type: cell-based
Source text: Paints 1 to 3 were mixed and homogenized with various concentrations of the guanidinium salts to be tested.
The batches obtained of the paint thus prepared were inoculated repeatedly with a mixture of different wild-type bacterial strains that are of practical relevance with regard to contamination. These bacteria had previously been isolated from commercial emulsion paints containing conventional preservatives (bacteria mixture 1, Pseudomonas genus), which are microbially contaminated in practice, and commercial so-called preservative-free alkaline emulsion paints (bacteria mixture 2, alkaliphilic bacteria of the Nesterenkonia & Alkalibacterium genus), which are microbially contaminated in practice.
• Pseudomonas spp. (Pseudomonas oleovorans group) DSM 33933 • Pseudomonas aeruginosa DSM 33935 • Pseudomonas oleovorans DSM 33936 • Pseudomonas putida DSM 33937 • Pseudomonas aeruginosa DSM 33938
The inoculum was added to the respective sample in each inoculation at 2% (v/w) as a fresh cell suspension in a physiological saline solution (0.9% NaCl). The cell count of the added inoculum in example 1 was 10^5/ml, in examples 2 to 5 10^9/ml, and in example 6 10^6/ml, each in equal portions consisting of the individual bacterial strains. The cell suspension was produced by growing the individual bacteria at 30° C. for 24 h in liquid culture on a shaker. The medium used to grow the bacteria from bacteria mixture 1 was Müller-Hinton liquid medium. Bacteria from bacteria mixture 2 were grown in Müller-Hinton liquid medium that had been adjusted to pH 9.5-9.7 with an alkaline buffer solution beforehand. After growing, the individual liquid cultures were centrifuged, and the cells were resuspended in physiological saline solution. In order to adjust the mixture to the desired cell count, the individual bacteria suspensions, if necessary, were diluted accordingly before being combined with saline solution. The cell count of the inoculum was determined in each case by chamber counting.
In examples 2 to 6, what is called a repetitive stress test with bacteria was conducted by inoculating the samples at particular time intervals repeatedly with a bacteria suspension having a cell count of 10^9/ml (2% v/w) and monitoring the evolution of the bacteria by a semiquantitative evaluation method. After each inoculation, the samples were incubated at 30° C. for 6 days (bacteria mixture 1 and 3) or 7 and 14 days (bacteria mixture 2), and after these periods bacterial infestation was evaluated semiquantitatively in each case. For this purpose, an aliquot was taken from each sample after homogenization using a sterile plastic inoculation loop (10 μl) and streaked evenly on agar plates (bacteria mixture 1 and 3 on tryptic soy agar, bacteria mixture 2 on DSMZ 31 alkaline nutrient agar). The streaked agar plates were then incubated at 30° C. for 48 h (bacteria mixture 1 and 3) or 5 to 7 days (bacteria mixture 2). After incubation, the bacterial colonies grown on the agar plates were visually evaluated and quantified according to the following scheme:
A total of 3 inoculation cycles was performed in each repetitive stress test.
Inoculation 2% (w/v) with Bacteria Mixture 1, 10^9 CFU/ml
2% (w/v) Inoculation with Bacteria Mixture 1, […]

Measured: Stabilization of the paint against microbial infestation

N=C(N)N [guanidine hydrochloride]
distinct stabilization: table 2, addition of 0.25% by weight to paint 1 having a pH of pH 8.5 | table 2, addition of 0.25% by weight to paint 2 having a pH of 9.0 | table 3, paint 1, pH of 7.5, addition of 0.8% by weight | table 3, paint 2, pH of pH 7.6, addition of 0.8% by weight
